“And” between values parts separate entries of the source, which are not always exact repeats. Equal entries are not always repeated.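 All cell lines were grown in 96-well plates and treated with compound for 48 hours. At the GI50, growth is halved. Definition used: TGI = concentration required for complete inhibition of growth.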 A value given as a limit tells only on which side of the number the result lay.

The test has as its system MDA-MB-468 breast. Put plainly: NCI tumour cell line growth inhibition, 48 h.
Regarding `C=C1c2c(Cl)ccc(O)c2C(O)=C2C(=O)[C@]3(O)C(O)=C(C(N)=O)C(=O)[C@@H](N(C)C)[C@@H]3[C@@H](O)[C@H]12`, the GI50 was 0.846 µM and the TGI was 2.56 µM.

As for `CN(C)CCN1C(=O)c2cccc3cccc(c23)C1=O`, the GI50 is 10.3 µM and the TGI was more than 25 µM.

Take `Cn1cnc([N+](=O)[O-])c1Sc1ncn[nH]1`: the GI50 was 21 µM and the TGI was more than 100 µM.

With `Cc1cccc2c(N)c3ccccc3nc12`, the GI50 was 1.44 µM and the TGI is 4.63 µM.

Consider `CCn1c2ccccc2c2cc(C(O)c3cccc4ncccc34)ccc21` (centres undefined), for which the GI50 was 0.0326 µM and the TGI stood at 0.849 µM.

Take `c1ccc(CNc2nc(Nc3ccccc3)nc3ccccc23)cc1`: the GI50 is 1.09 µM and the TGI stood at 2.56 µM.

Turning to `C/C=C(\C)C(=O)N[C@H]1C(O)C[C@]2(C)C3CC[C@@]4(C)C(CC[C@@H]4C(C)N(C)C)C3CCC2C1O` (some centres undefined), the GI50 was 1.7 µM and the TGI is 4.54 µM.

With `CC(=O)Oc1ccc(C(c2ccc(OC(C)=O)cc2)c2ccccn2)cc1`, the GI50 is 0.458 µM and 1.34 µM; the TGI was 25 µM and 45.2 µM.

Regarding `COc1ccc(Nc2cc(C)nc(N3CCN(c4ccnc5cc(Cl)ccc45)CC3)n2)cc1`, the GI50 is 1.77 µM and the TGI is 5.57 µM.

Consider `C#Cc1nc(C2=C(C)C(OC(C)=O)/C(=N/OC(C)=O)C2)cs1` (centres undefined), for which the GI50 is 2.07 µM and the TGI is 8.72 µM.

With `Cc1nc(Nc2nc3ccccc3o2)nc(-c2cccc([N+](=O)[O-])c2)c1C(=O)Nc1ccc(F)c(Cl)c1`, the GI50 was 1.28 µM and the TGI was 6.44 µM.

`CCCNc1nc2ccccc2c2c1S(=O)(=O)c1ccc(Cl)cc1C2=O`: the GI50 was 0.195 µM and the TGI is 1.47 µM.

As to `OCCN1CCN(CC/C=C2\c3ccccc3Sc3ccc(Cl)cc32)CC1`, the GI50 was 1.54 µM and 1.82 µM; the TGI was 3.18 µM and 4.05 µM.

With `O=C1NCCS(=O)(=O)/C1=C\C=C\c1cccc(C(F)(F)F)c1`, the GI50 was 1.56 µM and the TGI is 4.53 µM.

Regarding `CC(C)COC(=O)c1ccc2[nH]c(O)c(C=Nc3ccc(S(N)(=O)=O)cc3)c2c1`, the GI50 is 1.57 µM and the TGI came to 4.36 µM.

As for `Cn1c(=O)c(Oc2ccc(F)cc2F)cc2cnc(NCCS(C)(=O)=O)nc21`, the GI50 was more than 25 µM and the TGI is more than 25 µM.

For the compound `COc1ccc(OC)c(Nc2nc(-c3c(C)nc4sccn34)cs2)c1`, the GI50 is 1.7 µM and the TGI is 75.3 µM.

As to `O=S(=O)(NCCNc1nccc(-c2c(-c3ccc(F)cc3)nc3sccn23)n1)c1ccccc1`, the GI50 is 4.34 µM and the TGI is more than 100 µM.

`Oc1ccc(Cl)cc1CNc1nc2ccccc2[nH]1`: the GI50 was 5.72 µM and the TGI was determined as 21.9 µM.

With `CCO/C=N/C1=C(C#N)C(c2ccc(OC)cc2)c2sc3c(C)cccc3c2O1` (centres undefined), the GI50 was 0.276 µM and the TGI is 5.69 µM.

For the compound `COc1cc(Cl)cc(-c2nn(-c3cccc(NC(=O)Nc4ccc(Cl)c(C(F)(F)F)c4)c3)cc2-c2ccncc2)c1`, the GI50 is 0.99 µM and the TGI is 5.47 µM.

For the compound `COc1cc(/C=N/NC(=O)c2cn(C3CC3)c3c(OC)c(N4CC5CCCNC5C4)c(F)cc3c2=O)ccc1O` (centres undefined), the GI50 was 1.63 µM and the TGI came to 3.11 µM.

Take `CCN(CC)CCSCCCNc1c2ccc(Cl)cc2nc2ccc(OC)cc12`: the GI50 was 1.5 µM and the TGI was found to be 3.05 µM.

Take `COc1cc(/C=C/C(=O)c2cccnc2Nc2ccc(F)cc2)cc(OC)c1OC`: the GI50 was 1.77 µM and the TGI was 5.67 µM.

For `CCN(CC)CCOc1ccc(C(=O)/C=C\c2ccc(Cl)cc2Cl)cc1`, the GI50 was 5.05 µM and the TGI was determined as 19 µM.

As for `COc1ccc(C2=CC(c3ccc(OC)c(OC)c3)c3c(c4ccccc4oc3=O)O2)cc1OC` (centres undefined), the GI50 is 0.475 µM and the TGI was 8.3 µM.

Take `COc1ccc(-c2nn(-c3cccc(NC(=O)c4ccc(N5CCOCC5)c(C(F)(F)F)c4)c3)cc2-c2ccncc2)cc1Cl`: the GI50 is 6.88 µM and the TGI is more than 50 µM.

With `COc1ccc2nc(NC(=O)c3cccnc3Nc3cc(OC)c(OC)c(OC)c3)sc2c1`, the GI50 was 17.8 µM and the TGI was found to be 62.7 µM.

On to `CC(C)CCN[C@@H]1CCc2cc(O)c(N3CC(=O)NS3(=O)=O)c(F)c2C1`, for which the GI50 is more than 100 µM and the TGI is more than 100 µM.

As for `CO[C@H]1CC(c2ccc[nH]2)=N[C@]12O[C@@H](C)C[C@@H]1CCCCCCCc3ccc([nH]3)[C@H]12`, the GI50 was 0.444 µM and the TGI was determined as 3.62 µM.

`CCOC(=O)/C(C#N)=C/c1ccc2c(c1)CC1(C2)Cc2cc(CC)c(C(C)O)cc2C1` (centres undefined): the GI50 is 12.4 µM and the TGI was found to be 36.8 µM.

`O=C(Nc1ccc(I)cc1F)c1cc(Cl)ccc1O`: the GI50 was 0.361 µM and the TGI stood at 1.73 µM.
